“Also recorded” adds a separate entry of the source.
What was measured:
[1] = tested on: uric acid-induced gouty arthritis pain in the rat; test: pain-induced functional impairment model in the rat (PIFIR), antinociceptive effects; assay type: in vivo, male Wistar rats; details: for Maximum efficacy (ABC: X ± E.E.): ABC of the FI % temporal curve over 4 h, at the dose that generates the maximum efficacy (S-ketorolac tromethamine 3.16 mg/kg, tramadol chlorhydrate 56.23 mg/kg); for Relative efficacy: compared to S-ketorolac tromethamine (= 1.0); for antinociceptive effects, dose dependence: single acute oral administration, evaluated for 4 hours, tramadol 5.6 to 56.2 mg/kg, S-ketorolac tromethamine 0.01 to 3.16 mg/kg
From the text: In order to determine the antinociceptive effects, male Wistar rats weighing between 180 and 200 g were employed. These were handled in accordance with the Official Mexican Norm (NOM-062-ZOO-1999) and in accordance with the general principles of lab animal care (NIH publication #85-23, revised in 1985). The minimum number of test animals were used (6 animals per experimental point for antinociceptive effects, motor coordination, and gastrointestinal damage, and 10 animals per experimental point for adverse effects: lethal dose 50). The animals were kept in a room with alternate cycles of light/darkness. Twelve hours before the antinociceptive tests, the food was withdrawn, and they only had free access to water. All of these experiments were conducted during the light phase.
The analgesics were dissolved or suspended in carboxymethyl cellulose at 0.5% and administered orally in a volume of 4 ml/kg.
This methodology is commonly known as “pain-induced functional impairment model in the rat” (PIFIR). This methodology was used to determine and compare the antinociceptive effects of these analgesics.
The methodology of the PIFIR experimental procedure is briefly described below: The animals were anesthetized in an anesthesia chamber saturated with isoflurane vapors. The gouty arthritis was induced by applying an intra-articular injection (i.art.) with 0.05 ml of uric acid suspended in mineral oil (at 30%) in the right hind limb, exactly in the femur-tibia-patella joint.
A 1 ml glass syringe with a No. 22, 4 mm long needle was used for the i.art. injection. Immediately afterward, an electrode was fixed on each hind limb in the middle of the plantar calluses. After the rats recovered from the anesthesia, they were placed in a 30 cm diameter stainless steel rotating cylinder. The cylinder was rotated at 4 rpm, forcing the rats to walk for 2 minutes every half hour for a total of 6.5 hours (2.5 h to generate the gouty arthritis and 4 h to evaluate the antinociceptive effects of the analgesics). The variable measured was the time of contact of each one of the hind limbs of the rats in the cylinder.
When the electrode and the cylinder make contact, a circuit closes, and the relationship between the time of contact of the extremity to which the uric acid was administered as compared to the one to which uric acid was not administered was registered in a computer. The percentage functionality indexes (FI %) are calculated with these variables. Once the total dysfunction (FI=0%) was produced due to the effect of the uric acid, the corresponding doses of each analgesic were administered individually or in combination.
The medium and standard error of the evaluation of the antinociceptive effects are presented in all of the graphics as from time “0,” which is the moment at which the arthritis is completely developed in the rat and is the precise moment of the administration of tramadol chlorhydrate and S-ketorolac tromethamine.
With the administration of these doses, the complete doses-responses of S-ketorolac tromethamine and tramadol chlorhydrate were plotted separately in order to perform a comparative analysis for efficacy and potency. In the case of tramadol chlorhydrate, the curves were obtained through a single and acute 4-hour administration in doses with algorithmic increases (of 5.6 to 56.2 mg/kg), (FIG. 1). The S-ketorolac tromethamine temporal curves were obtained through acute administration evaluated for 4 hours in doses with algorithmic increases (from 0.01 to 3.16 mg/kg).
After this, 24 different combinations of S-ketorolac tromethamine and tramadol chlorhydrate were analyzed in order to detect the type of interaction and the most significant combinations due to the degree of efficacy or the degree of antinociceptive potency.

[2] = pharmacological / analgesic potency relative to comparators (no method given); assay type: in vivo
[3] = background statement, cited from earlier work

SMILES	Maximum efficacy (ABC: X ± E.E.) ([1]; po)	Maximum efficacy (ABC: X ± E.E.) ([1]; po, listed as tramadol chlorhydrate)	efficacy relative to that exhibited by S-ketorolac tromethamine ([1]; PIFIR, po)	Relative efficacy ([1]; PIFIR, po)	antinociceptive effects, dose dependence [1]	potency relative to AA ([2]; times more potent than AA)	potency relative to morphine ([2]; times more potent than morphine)	potency relative to rac-ketorolac ([2]; times more potent than rac-ketorolac)	potency ratio of the S (−) enantiomer ([3]; comparator not clearly printed)	analgesic effect relative to the racemic form [3]
COc1cccc([C@@]2(O)CCCC[C@@H]2CN(C)C)c1.Cl (relative stereo) [Tramadol chlorhydrate, (1R,2R)-rel-2-[(dimethylamino)methyl]-1-(3-methoxyphenyl)cyclohexanol]	216.7 ± 19.1 au	216.66 au	70%	0.70	doses-dependent antinociceptive effects; also recorded: antinociceptive effects that are dependent on the gouty arthritis-type pain dose	–	–	–	–	–
O=C(c1ccccc1)c1ccc2n1CC[C@@H]2C(=O)O [S-ketorolac tromethamine, 2-amino-2-hydroximethyl-1,3 propanediol (1:1) S-(−)-5-benzoyl-2,3-dihydro-1H-pyrrolizine-1-carboxylate]	310.5 ± 13.5 au	–	–	1.0	doses-dependent antinociceptive effects; also recorded: antinociceptive effects that are dependent on the gouty arthritis-type pain dose	1037 times	82 times	3.3 times	approximately 60 times	almost double that of the racemic form

Source: patent publication US20210069151A1, “[…] PHARMACEUTICAL COMBINATION OF THE ACTIVE ENANTIOMER S-KETOROLAC TR[…] TRAMADOL CHLORHYDRATE” (priority 2018, published 2021)
